Measured values from patent US7034208B1, “Ahas inhibiting herbicide resistant wheat and method for selection thereof” (BASF Aktiengellschaft, priority 1991, dated 2006).

Tests used:
[1] = test system: wheat selections FS2 and FS4 and Fidel; assay: Postemergence Herbicide Tolerance, upper limits; assay type: in vivo; details: four weeks after treatment
Description: In this second greenhouse test, the upper limits of the mutant selections' resistance to postemergent applications of PURSUIT™ and Compound 2 are examined. M4 seed of two of the mutant selections, FS2 and FS4, and seed of Fidel are used in this experiment. Five seeds from each line are planted per pot in sterile Metro Mix 350™ in six inch Azalea pots. Immediately prior to herbicide treatment, these plants are thinned to three plants per pot. Three replicates are used per treatment (chemical & rate) for each line, and six replicates per wheat line are used as untreated controls. The plants are sprayed postemergence, 10 days after planting, with the following herbicides and rates (g/ha):
The herbicides are applied as previously described. Plant height is measured immediately prior to spraying. Plant heights are also measured at two and four weeks after treatment, and shoot fresh weights measured at seven weeks after treatment.

[2] = test system: F2 progeny of Fidel x FS1-FS4 crosses and Fidel; assay: Genetic Condition Studies Experiment 4, F2 of (Fidel x FS) selfed; assay type: in vivo, wheat; details: 200 g/ha postemergence
Description: Experiment 4: The resistant wheat selections, FS1-FS4, are crossed to Fidel and the F1 seed from these crosses is selfed. The crosses are as follows: (Fidel×FS1) selfed (Fidel×FS2) selfed (Fidel×FS3) selfed (Fidel×FS4) selfed
The F2 progeny from these crosses and their susceptible progenitor variety Fidel are planted in flats. Five F2 progenies are used for each of the four crosses. One flat is planted of each progeny for each cross. The flats consist of six rows per flat with 25 seeds per row. The flats are sprayed postemergence with 200 g/ha PURSUIT™ eleven days later. The PURSUIT™ is applied as previously described.

[3] = test system: M3 wheat plants from selections FS1-FS4 and Fidel; assay: M3 Plant Screen: In vivo (seed soak/preemergence application screen)
Experimental: M3 plants from the four initial plant selections (labelled FS1, FS2, FS3 and FS4) are screened for PURSUIT™ resistance. Five M3 seeds from each mature infloresence of these initial M2 mutants are disinfested in 70% EtOH for 30 seconds followed by disinfestation in 50% solution containing 2.625% sodium hypochlorite (as described above) for 20 minutes under vacuum with gentle agitation provided by a stir plate. The seeds are rinsed two times in sterile distilled water.
Each set of five seeds is then placed into 10 ml of a 1500 uM solution of PURSUIT™ in a sterile 60×15 mm plastic petri dish and soaked for three days. The seeds are rinsed with water, dried with paper towels and planted approximately ½″ deep in 6×8 inch peat flats containing moist, sterile Metro Mix 350™. These flats are sprayed preemergence with 300 g/ha of PURSUIT™. Controls include M3 seeds from each resistant selection which are disinfested as previously described, soaked in sterile distilled water for three days and then planted. In addition, unselected susceptible Fidel wheat is disinfested as described above and one-half of the seeds treated with PURSUIT™ (seed soak and spray procedure) and the other half are soaked in water alone. The herbicide is applied with a laboratory belt sprayer at a rate of 950 L/ha with a belt speed of 12.5 sec/rev using sprayer nozzle #40015E.
Four weeks after receiving the initial seed soak, the M3 wheat plants are rated according to whether the plants are herbicide resistant, herbicide damaged or dead. The herbicide resistant plants are transplanted individually to 7.5 inch Azalea pots with Metro Mix 350™. A fertilizer, Osmocote™ (Sierra Company, Milpita, Calif.) is added as a top dressing one week after the plants are transplanted. In addition the plants are fertilized regularly with Peter's 20-20-20™ (Grace Company, Cambridge, Mass.). Individual plants are rated against Fidel untreated controls.

[4] = test system: AHAS (acetohydroxyacid synthase); assay: AHAS enzyme assay, Initial Assay (M3 Plants); assay type: biochemical, wheat
Experimental: Herbicide Application: M3 plants from the four initial mutant plants (FS1, FS2, FS3 and FS4), are tested for metabolic AHAS (acetohydroxyacid synthase) activity. […] When these plants are three weeks old, two plants of each mutant selection, FS1-FS4, receive a second application of PURSUIT™ at 62.5 g/ha while two of each selection are left unsprayed. Sprayed and unsprayed susceptible Fidel plants are also included in this experiment. […] Compound 9 is 2-acetamido-2,3-dimethyl-N-(p-tolylsulfonyl)butyramide, and is described in U.S. Pat. No. 4,883,914.
Enzyme Extraction: For the extraction of AHAS, 10 grams of tissue are powdered in liquid nitrogen and then homogenized in 100 mM potassium phosphate buffer (pH 7.5) containing 10 mM pyruvate, 5 mM MgCl2, 5 uM EDTA, 100 uM FAD, 1 mM valine, 1 mM leucine, 10% glycerol, and 10 mM cysteine. The homogenate is filtered through a nylon cloth (53 uM mesh) and centrifuged at 25,000 g for 20 minutes. […]
AHAS Assay: AHAS activity is measured by estimation of the product, acetolactate, after conversion by decarboxylation in the presence of acid to acetoin. […] The acetoin formed is determined by incubating with creatine (0.17%) and 1-napthol (1.7% in 4N NaOH) by the method of Westerfield (Westerfield, W. W., J. Biol. Chem., 161, 495-502 (1945)). […] The absorption of color complex is measured at 520 nm. […]

[5] = Control 2 = Susceptible wheat seed (Fidel) soaked in herbicide solution, three weeks
[6] = FS1 M3, 1500 uM seed soak + 300 g/ha preemergence, three weeks after herbicide treatment
[7] = FS2 M3, 1500 uM seed soak + 300 g/ha preemergence, three weeks after herbicide treatment
[8] = FS3 M3, 1500 uM seed soak + 300 g/ha preemergence, three weeks after herbicide treatment
[9] = FS4 M3, 1500 uM seed soak + 300 g/ha preemergence, three weeks after herbicide treatment

## CCc1cnc(C2=NC(C)(C(C)C)C(=O)N2)c(C(=O)O)c1 (stereo not drawn) [PURSUIT, 5-ethyl-2-(4-isopropyl-4-methyl-5-oxo-2-imidazolin-2-yl)-nicotinic acid]
[1]
  rates up to which FS2 and FS4 plant heights equal the untreated controls: 500-1000 g/ha
[2]; F2 of each of the four crosses (Fidel x FS1-FS4) selfed
  segregation ratio of F2 progenies: 3 (resistant): 1 (susceptible)
[2]; plants heterozygous or homozygous for resistance
  lethality: non-lethal
[2]; susceptible wheat
  lethality: lethal to susceptible wheat
[3]; Control 2 = Susceptible wheat seed (Fidel) soaked in herbicide solution
  No. of Plants (number of plants raised/number of seeds planted): 13/15
[3]; [5]
  Ave. Shoot Height: 21.2 cm
  Range Shoot Heights: 8-30 cm
[3]; FS1 M3, 1500 uM seed soak + 300 g/ha preemergence
  No. of Plants (number of plants raised/number of seeds planted): 48/80
[3]; [6]
  Ave. Shoot Height: 9.1 cm
  Range Shoot Heights: 2-15 cm
[3]; FS1 M3 seed, 1500 uM seed soak + 300 g/ha preemergence
  germination frequency: 60%
[3]; FS2 M3, 1500 uM seed soak + 300 g/ha preemergence
  No. of Plants (number of plants raised/number of seeds planted): 36/80
[3]; [7]
  Ave. Shoot Height: 11.7 cm
  Range Shoot Heights: 5-18 cm
[3]; FS2 M3 seed, 1500 uM seed soak + 300 g/ha preemergence
  germination frequency: 47.5%
[3]; FS3 M3, 1500 uM seed soak + 300 g/ha preemergence
  No. of Plants (number of plants raised/number of seeds planted): 35/85
[3]; [8]
  Ave. Shoot Height: 8.0 cm
  Range Shoot Heights: 1-14.5 cm
[3]; FS3 M3 seed, 1500 uM seed soak + 300 g/ha preemergence
  germination frequency: 41.2%
[3]; FS4 M3, 1500 uM seed soak + 300 g/ha preemergence
  No. of Plants (number of plants raised/number of seeds planted): 44/85
[3]; [9]
  Ave. Shoot Height: 21.1 cm
  Range Shoot Heights: 5-28 cm
[3]; FS4 M3 seed, 1500 uM seed soak + 300 g/ha preemergence
  germination frequency: 55%
[3]; non-mutagenized, non-selected Fidel seed, 1500 uM seed soak and 300 g/ha preemergent
  survival: does not survive
[3]; some M3 seedlings, progeny of FS4, 1500 uM seed soak + 300 g/ha preemergence
  herbicide symptoms: stunting, twisting and/or chlorotic striping
[4]; FS1-FS4 M3 plants sprayed with 62.5 g/ha PURSUIT, compared to sprayed wild type
  resistance of AHAS to inhibition: dramatic increase in the AHAS resistance
[4]; resistant wheat lines, unsprayed M3 plants
  resistance of AHAS to inhibition: weak resistance
